Values quoted from earlier work in US12042557B2, “Rapid establishment and/or termination of substantial steady-state drug delivery” (Intarcia Therapeutics, Inc., priority 2009, dated 2024).
Read-outs that look alike come from different tables or passages of the source.

Assays:
[1] = system: subjects on metformin-only background treatment, type 2 diabetes mellitus
[2] = in vivo
[3] = Treatment F: oral 100 mg/day, subjects with baseline HbA1c less than 9.0
[4] = Treatment F: oral once a day 100 mg/day, metformin background, Bergenstal 2010

Row | Molecule | change of HbA1c for the study [1, 3] | endpoint HbA1c % [1, 3] | change of HbA1c for the study [1, 4] | endpoint HbA1c % [1, 4] | percentage of subjects who achieved an HbA1c of 7% or less [1, 4] | half-life [2]
1 | N[C@@H](CC(=O)N1CCn2c(nnc2C(F)(F)F)C1)Cc1cc(F)c(F)cc1F [sitagliptin, Sitagliptin] | −0.5% | 7.2% | −0.9% | 7.6% | 31% | –
2 | PYY: 36 amino acid residue peptide amide [peptide YY] | – | – | – | – | – | approximately 8 minutes
